Source: patent publication US12187705B2, “Heteroaryl-triazole and heteroaryl-tetrazole compounds as pesticides” (Bayer Aktiengesellschaft, priority 2018, dated 2025)

Columns and labels:
Format in all cases: in vivo
Nilaparvata lugens = Nilaparvata lugens spray test; conditions: Nilaparvata lugens, in Oryza sativa, 96 h
Method: Nilaparvata lugens—Spray Test
(§1) To produce a suitable preparation of active compound, 1 part by weight of active compound is mixed with the stated amount of solvents and is diluted with water, containing an emulsifier concentration of 1000 ppm, to the desired concentration. Further test concentrations are prepared by dilution with emulsifier containing water.
Rice plants (Oryza sativa) are sprayed with a preparation of the active ingredient of the desired concentration and the plants are infested with the brown planthopper (Nilaparvata lugens).
After 4 days mortality in % is determined. 100% means all planthoppers have been killed and 0% means none of the planthoppers have been killed.

Diabrotica balteata = Diabrotica balteata spray test; conditions: Diabrotica balteata, 168 h; 160 μg/well, wheat seeds, after 7 days; read-out: efficacy (seedlings grown)
Method: Diabrotica balteata—Spray Test
(§2) To produce a suitable preparation of active compound, 1 part by weight of active compound is mixed with the stated amount of solvent, and the concentrate is diluted with water, containing an emulsifier concentration of 1000 ppm, to the desired concentration. Further test concentrations are prepared by dilution with emulsifier containing water.
Soaked wheat seeds (Triticum aestivum) are placed in a multiple well plate filled with agar and some water and are incubated for 1 day to germinate (5 seeds per well). The germinated wheat seeds are sprayed with a test solution containing the desired concentration of the active ingredient. Afterwards each unit is infected with 10-20 larvae of the banded cucumber beetle (Diabrotica balteata).
After 7 days efficacy in % is determined. 100% means all the seedlings have grown up like in the untreated, uninfected control; 0% means none of the seedlings have grown.

Myzus persicae [1] = assay: Myzus persicae oral test; conditions: 120 h
Method: To produce a suitable preparation of active compound, 1 part by weight of active compound is mixed with the stated amount of solvent, and the concentrate is diluted with water to the desired concentration.
50 μl compound solution is filled in microtiter plates and 150 μl IPL41 insect medium (33%+15% sugar) is added to obtain a total volume of 200 μl per well. Afterwards the plates are sealed with parafilm through which a mixed population of the green peach aphid (Myzus persicae) can suck on the compound preparation.
(§3) After 5 days mortality in % is determined. 100% means all aphids have been killed and 0% means none of the aphids have been killed.

Nezara viridula = Nezara viridula spray test; conditions: in Hordeum vulgare, 96 h
Method: Nezara viridula—Spray Test
as §2
Barley plants (Hordeum vulgare) infested with larvae of the southern green stink bug (Nezara viridula) are sprayed with a test solution containing the desired concentration of the active ingredient.
After 4 days mortality in % is determined. 100% means all the stink bugs have been killed; 0% means none of the stink bugs have been killed.

Spodoptera frugiperda = Spodoptera frugiperda spray test; conditions: in Zea mays, 168 h
Method: Spodoptera frugiperda—Spray Test
as §1
Maize (Zea mays) leaf sections are sprayed with a preparation of the active ingredient of the desired concentration. Once dry, the leaf sections are infested with fall armyworm larvae (Spodoptera frugiperda).
After 7 days mortality in % is determined. 100% means all caterpillars have been killed and 0% means none of the caterpillars have been killed.

Ctenocephalides felis [2] = assay: Ctenocephalides felis in-vitro contact test adult cat flea; conditions: Ctenocephalides felis; 5 μg/cm^2 (=500 g/ha), after 48 hours; read-out: efficacy (fleas dead or moribund)
Method: Ctenocephalides felis—In-Vitro Contact Test Adult Cat Flea
9 mg compound is solved in 1 ml acetone and diluted with acetone to the desired concentration. 250 μl of the test solution is filled in 25 ml glass test tubes and homogeneously distributed on the inner walls by rotation and tilting on a shaking device (2 h at 30 rpm). With a compound concentration of 900 ppm, an inner surface of 44.7 cm^2 and a homogeneous distribution, a dose of 5 μg/cm^2 is achieved.
After the solvent has evaporated, each test tube is filled with 5-10 adult cat fleas (Ctenocephalides felis), closed with a perforated lid and incubated in a lying position at room temperature and relative humidity. After 48 hours efficacy is determined. The fleas are patted on the ground of the tubes and are incubated on a heating plate at 45-50° C. for at most 5 minutes. Immotile or uncoordinated moving fleas, which are not able to escape the heat by climbing upwards, are marked as dead or moribund.
An efficacy of 100% means all fleas are dead or moribund; 0% means no fleas are dead or moribund.

Boophilus microplus = Boophilus microplus injection test; conditions: Rhipicephalus microplus, 168 h, 20 μg/animal, egg deposition after 7 days, read-out: efficacy (infertile eggs)
Method: Boophilus microplus—Injection Test
(§4) Solvent: dimethyl sulfoxide
To produce a suitable preparation of active compound, 10 mg of active compound are dissolved in 0.5 ml solvent, and the concentrate is diluted with solvent to the desired concentration.
Five adult engorged female ticks (Boophilus microplus) are injected with 1 μl compound solution into the abdomen. The ticks are transferred into replica plates and incubated in a climate chamber.
After 7 days egg deposition of fertile eggs is monitored. Eggs where fertility is not visible are stored in a climate chamber till hatching after about 42 days. An efficacy of 100% means all eggs are infertile; 0% means all eggs are fertile.

Ctenocephalides felis [3] = assay: Ctenocephalides felis oral test; conditions: Ctenocephalides felis, in Bos taurus, po, 48 h
Method: Ctenocephalides felis—Oral Test
as §4
To produce a suitable preparation of active compound, 10 mg of active compound are dissolved in 0.5 ml solvent, and the concentrate is diluted with cattle blood to the desired concentration.
Approximately 20 adult unfed cat fleas (Ctenocephalides felis) are placed in flea chambers. The blood chamber, sealed with parafilm on the bottom, are filled with cattle blood supplied with compound solution and placed on the gauze covered top of the flea chamber, so that the fleas are able to suck the blood. The blood chamber is heated to 37° C. whereas the flea chamber is kept at room temperature.
After 2 days mortality in % is determined. 100% means all the fleas have been killed; 0% means none of the fleas have been killed.

[4] = test system: Aedes aegypti strain MONHEIM; assay: Aedes aegypti test (AEDSAE surface treatment & contact assay); conditions: 24 hours after contact, read-out: efficacy (mortality); for mortality at 4 mg/m2: surface concentration 4 mg/m^2, 30 minutes exposure; for mortality at 20 mg/m2: surface concentration 20 mg/m^2, 30 minutes exposure
Method: Aedes aegypti Test (AEDSAE Surface Treatment & Contact Assay)
(§5) Solvent: Aceton+2000 ppm rapeseed oil methyl ester (RME)
In order to produce a sufficient, active ingredient containing solution it is necessary to solve the test-compound in the solvent-mix (Acetone at 2 mg/ml/RME 2000 ppm). This solution is pipetted onto a glazed tile and after evaporation of the Acetone, adult mosquitoes of the species Aedes aegypti strain MONHEIM are placed onto the dried surface. The exposure time is 30 minutes.
(§6) Mortality in percent (%) is determined 24 hours after contact to the treated surface. 100% mortality means that all test-insects are dead, whereas 0% means that not a single insect died.

[5] = test system: Culex quinquefasciatus strain P00; assay: Culex quinquefasciatus test (CULXFA surface treatment & contact assay); conditions: 24 hours after contact, read-out: efficacy (mortality); for mortality at 4 mg/m2: surface concentration 4 mg/m^2, 30 minutes exposure; for mortality at 20 mg/m2: surface concentration 20 mg/m^2, 30 minutes exposure
Method: Culex quinquefasciatus Test (CULXFA Surface Treatment & Contact Assay)
as §5
In order to produce a sufficient, active ingredient containing solution it is necessary to solve the test-compound in the solvent-mix (Acetone at 2 mg/ml/RME 2000 ppm). This solution is pipetted onto a glazed tile and after evaporation of the Acetone, adult mosquitoes of the species Culex quinquefasciatus strain P00 are placed onto the dried surface. The exposure time is 30 minutes.
as §6

[6] = test system: Anopheles funestus strain FUMOZ-R; assay: Anopheles funestus test (ANPHFU surface treatment & contact assay); conditions: 24 hours after contact, read-out: efficacy (mortality); for mortality at 4 mg/m2: surface concentration 4 mg/m^2, 30 minutes exposure; for mortality at 20 mg/m2: surface concentration 20 mg/m^2, 30 minutes exposure
Method: Anopheles funestus Test (ANPHFU Surface Treatment & Contact Assay)
as §5
In order to produce a sufficient, active ingredient containing solution it is necessary to solve the test-compound in the solvent-mix (Acetone at 2 mg/ml/RME 2000 ppm). This solution is pipetted onto a glazed tile and after evaporation of the Acetone, adult mosquitoes of the species Anopheles funestus strain FUMOZ-R (Hunt et al., Med Vet Entomol. 2005 September; 19(3):271-5) are placed onto the dried surface. The exposure time is 30 minutes.
as §6

Myzus persicae [7] = assay: Myzus persicae spray test; conditions: in Brassica rapa, foliar, 120 h
Method: Myzus persicae—Spray Test
as §1
Chinese cabbage (Brassica pekinensis) leaf disks infected with all instars of the green peach aphid (Myzus persicae), are sprayed with a preparation of the active ingredient of the desired concentration.
as §3

| SMILES | mortality at 500 g/ha (Nilaparvata lugens) [%] | pest or weed control at 160 µg/disc, 160 µg/well (Diabrotica balteata) [%] | mortality at 4 ppm (Myzus persicae [1]) [%] | mortality at 500 g/ha (Nezara viridula) [%] | mortality at 500 g/ha (Spodoptera frugiperda) [%] | mortality at 100 ppm (Ctenocephalides felis [3]) [%] | also measured |
| --- | --- | --- | --- | --- | --- | --- | --- |
| CC(c1ncnn1-c1ncccn1)N(CC1CC1)C(=O)c1c(F)cccc1F (stereo not shown) [Example I-018] | 100 |  |  |  |  |  |  |
| C[C@H](NC(=O)c1cc(Cl)cc(S(=O)(=O)C(F)(F)F)c1)c1ncnn1-c1ncccn1 [Example I-033, 3-chloro-N-{(1S)-1-[1-(pyrimidin-2-yl)-1H-1,2,4-triazol-5-yl]ethyl}-5-[(trifluoromethyl)sulfonyl]benzamide] | 100 | 100 | 100 | 100 | 100 |  |  |
| CC(c1ncnn1-c1ncccn1)N(CC(F)F)C(=O)c1cc(Cl)cc(S(C)(=O)=O)c1 (stereo not shown) [Example I-041] | 100 | 100 | 100 | 100 |  | 100 | pest or weed control at 5 µg/cm2, 5 µg/cm2 (Ctenocephalides felis [2]): 90%; pest or weed control at 0.02 mg (Boophilus microplus): 100%; mortality at 4 mg/m2 [4]: 80 to 100%; mortality at 20 mg/m2 [4]: 90 to 100%; mortality at 4 mg/m2 [5]: 80 to 100%; mortality at 20 mg/m2 [5]: 80 to 100%; mortality at 4 mg/m2 [6]: 85 to 100%; mortality at 20 mg/m2 [6]: 85 to 100% |
| CC(NC(=O)c1cc(Cl)cc(-n2cncn2)c1)c1ncnn1-c1ncccn1 (stereo not shown) [Example I-049] | 100 | 100 |  | 100 |  | 100 | pest or weed control at 0.02 mg (Boophilus microplus): 100%; mortality at 4 mg/m2 [4]: 80 to 100%; mortality at 20 mg/m2 [4]: 90 to 100%; mortality at 20 mg/m2 [5]: 80 to 100%; mortality at 4 mg/m2 [6]: 85 to 100%; mortality at 20 mg/m2 [6]: 85 to 100% |
| CC(C)S(=O)(=O)c1cc(Cl)cc(C(=O)N[C@@H](C)c2ncnn2-c2ncccn2)c1 [Example I-051, 3-chloro-5-(isopropylsulfonyl)-N-{(1S)-1-[1-(pyrimidin-2-yl)-1H-1,2,4-triazol-5-yl]ethyl}benzamide] |  | 100 | 100 | 100 | 100 | 100 | pest or weed control at 5 µg/cm2, 5 µg/cm2 (Ctenocephalides felis [2]): 80%; pest or weed control at 0.02 mg (Boophilus microplus): 100% |
| COC[C@H](NC(=O)c1cc(Cl)cc(S(C)(=O)=O)c1)c1ncnn1-c1ncccn1 [Example I-059] | 100 |  |  |  |  | 100 | pest or weed control at 5 µg/cm2, 5 µg/cm2 (Ctenocephalides felis [2]): 80% |
| C[C@H](NC(=O)c1cc(Cl)cc(S(=O)(=O)CC(F)(F)F)c1)c1ncnn1-c1ncccn1 [Example I-093, 3-chloro-N-{(1S)-1-[1-(pyrimidin-2-yl)-1H-1,2,4-triazol-5-yl]ethyl}-5-[(2,2,2-trifluoroethyl)sulfonyl]benzamide] |  | 100 | 90 | 100 |  |  | mortality at 4 mg/m2 [4]: 80 to 100%; mortality at 20 mg/m2 [4]: 90 to 100%; mortality at 4 mg/m2 [5]: 80 to 100%; mortality at 20 mg/m2 [5]: 80 to 100%; mortality at 4 mg/m2 [6]: 85 to 100% |
| Cc1cnc(-n2ncnc2[C@@H](C)NC(=O)c2cc(Cl)cc(S(C)(=O)=O)c2)nc1 [Example I-096] |  |  | 100 | 100 | 100 |  | mortality at 500 g/ha (Myzus persicae [7]): 90% |
| C[C@@H](NC(=O)c1cncc(-c2ccc(F)cc2)c1)c1ncnn1-c1ncccn1 [Example I-111] | 100 |  |  |  |  |  |  |
| C[C@@H](NC(=O)c1csc(Cl)c1)c1ncnn1-c1ccc(C#N)cn1 [Example I-114] |  | 100 |  |  |  |  | mortality at 500 g/ha (Myzus persicae [7]): 90% |
| C[C@H](NC(=S)c1cc(F)cc(C2CC2)c1)c1ncnn1-c1ccc(C#N)cn1 [Example I-120, N-{(1S)-1-[1-(5-cyanopyridin-2-yl)-1H-1,2,4-triazol-5-yl]ethyl}-3-cyclopropyl-5-fluorobenzenecarbothioamide] | 100 | 100 |  | 100 | 100 |  |  |
| C[C@@H](NC(=O)c1cc(Cl)cc(C(C)(C)C)c1)c1ncnn1-c1ncccn1 [Example I-124] |  | 100 |  | 100 |  |  | mortality at 500 g/ha (Myzus persicae [7]): 100% |
